Experimental data as given in ChEMBL document CHEMBL2021790, “Pyridone methylsulfone hydroxamate LpxC inhibitors for the treatment of serious gram-negative infections” (J Med Chem, 2012).
In brackets after ≈: the same amount, converted by molar mass.

Legend:
[1] = system: Pseudomonas aeruginosa; assay: microbe, parasite or virus in culture
Description: Antimicrobial activity against Pseudomonas aeruginosa after 16 to 20 hrs by 2-fold microbroth dilution method

[2] = system: Citrobacter freundii; assay: microbe, parasite or virus in culture
Description: Antimicrobial activity against Citrobacter freundii after 16 to 20 hrs by 2-fold microbroth dilution method

[3] = system: Pseudomonas aeruginosa; assay: Antimicrobial activity against wild type Pseudomonas aeruginosa PA01 after 16 to 20 hrs by 2-fold microbroth dilution method; assay type: functional
[4] = system: Acinetobacter sp.; assay: Antimicrobial activity against Acinetobacter sp. after 16 to 20 hrs by 2-fold microbroth dilution method; assay type: functional
[5] = system: Escherichia coli; assay: microbe, parasite or virus in culture
Description: Antimicrobial activity against Escherichia coli after 16 to 20 hrs by 2-fold microbroth dilution method

[6] = system: Pseudomonas aeruginosa; assay: Antimicrobial activity against Pseudomonas aeruginosa PA3919 with (delta(mexAB-OprM)delta(mexXY)delta(MexZ) phenotype after 16 to 20 hrs by 2-fold microbroth dilution method; assay type: functional
[7] = biological target: T1, UDP-3-O-acyl-N-acetylglucosamine deacetylase (Pseudomonas aeruginosa (strain ATCC 15692 / PAO1 / 1C / PRS 101 / LMG12228), UniProt P47205); assay: Inhibition of Pseudomonas aeruginosa LpxC expressed in Escherichia coli using UDP-3-O-N-acetylglucosamine substrate measured after 30 mins by mass spectrometry
T1 sequence (P47205 whole entry): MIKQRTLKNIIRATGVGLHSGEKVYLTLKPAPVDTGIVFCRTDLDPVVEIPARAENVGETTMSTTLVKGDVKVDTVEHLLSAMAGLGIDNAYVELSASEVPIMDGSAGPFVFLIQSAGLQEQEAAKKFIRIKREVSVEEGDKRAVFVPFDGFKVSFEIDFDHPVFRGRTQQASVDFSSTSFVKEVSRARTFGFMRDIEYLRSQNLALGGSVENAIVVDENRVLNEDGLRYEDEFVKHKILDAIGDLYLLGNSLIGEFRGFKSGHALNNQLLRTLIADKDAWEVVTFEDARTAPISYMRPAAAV

[8] = system: Klebsiella pneumoniae; assay: microbe, parasite or virus in culture
Description: Antimicrobial activity against Klebsiella pneumoniae after 16 to 20 hrs by 2-fold microbroth dilution method

[9] = system: Klebsiella aerogenes; assay: microbe, parasite or virus in culture
Description: Antimicrobial activity against Enterobacter aerogenes after 16 to 20 hrs by 2-fold microbroth dilution method

Compound	MIC90 [1] [µg/mL]	MIC90 [2] [µg/mL]	MIC [3] [µg/mL]	MIC90 [4] [µg/mL]	MIC90 [5] [µg/mL]	MIC [6] [µg/mL]	IC50 [7] [nM]	MIC90 [8] [µg/mL]	MIC90 [9] [µg/mL]
C[C@@](CCn1ccc(-c2ccc3ccccc3c2)cc1=O)(C(=O)NO)S(C)(=O)=O	1 (≈ 2.41 µM)	0.125 (≈ 0.302 µM)	0.125 (≈ 0.302 µM)	> 64	0.06 (≈ 0.145 µM)	0.008 (≈ 0.0193 µM)	1.2	0.5 (≈ 1.21 µM)	0.25 (≈ 0.603 µM)
C[C@@](CCn1ccc(-c2cccc(F)c2)cc1=O)(C(=O)NO)S(C)(=O)=O			0.5 (≈ 1.31 µM)			0.015 (≈ 0.0392 µM)	3		
COc1ccccc1-c1ccn(CC[C@](C)(C(=O)NO)S(C)(=O)=O)c(=O)c1			4 (≈ 10.1 µM)			0.125 (≈ 0.317 µM)	12		
C[C@@](CCn1ccc(C#Cc2ccccc2)cc1=O)(C(=O)NO)S(C)(=O)=O	2 (≈ 5.15 µM)	0.125 (≈ 0.322 µM)	0.25 (≈ 0.644 µM)	> 64	0.06 (≈ 0.154 µM)	0.015 (≈ 0.0386 µM)	1.8	0.5 (≈ 1.29 µM)	0.25 (≈ 0.644 µM)
C[C@@](CCn1ccc(-c2cccnc2)cc1=O)(C(=O)NO)S(C)(=O)=O			> 64			2 (≈ 5.47 µM)	> 100		
C[C@@](CCn1ccc(-c2ccc(F)c(F)c2F)cc1=O)(C(=O)NO)S(C)(=O)=O	1 (≈ 2.39 µM)	0.5 (≈ 1.2 µM)	0.25 (≈ 0.598 µM)	> 64	0.5 (≈ 1.2 µM)	0.015 (≈ 0.0359 µM)	1.5	2 (≈ 4.78 µM)	1 (≈ 2.39 µM)
C[C@@](CCn1ccc(/C=C/c2ccccc2)cc1=O)(C(=O)NO)S(C)(=O)=O			0.5 (≈ 1.28 µM)			0.03 (≈ 0.0768 µM)	3.2		
C[C@@](CCn1ccc(-c2c(F)cccc2F)cc1=O)(C(=O)NO)S(C)(=O)=O			0.5 (≈ 1.25 µM)			0.03 (≈ 0.0749 µM)	4.8		
C[C@@](CCn1ccc(-c2ccc(-c3ccon3)cc2)cc1=O)(C(=O)NO)S(C)(=O)=O			0.25 (≈ 0.579 µM)			0.015 (≈ 0.0348 µM)	1.1		
C[C@@](CCn1ccc(-c2ccc(-c3ccncc3)cc2)cc1=O)(C(=O)NO)S(C)(=O)=O			0.5 (≈ 1.13 µM)			0.03 (≈ 0.0679 µM)	1.2		
Cc1cc(-c2ccccc2)cc(=O)n1CC[C@](C)(C(=O)NO)S(C)(=O)=O			4 (≈ 10.6 µM)			0.125 (≈ 0.33 µM)	22		
CC(CCn1ccc(C2CCCCC2)cc1=O)(C(=O)NO)S(C)(=O)=O (racemic)			2 (≈ 5.4 µM)			0.06 (≈ 0.162 µM)	11		
COc1ccc(-c2ccn(CC[C@](C)(C(=O)NO)S(C)(=O)=O)c(=O)c2)cn1	16 (≈ 40.5 µM)	16 (≈ 40.5 µM)	2 (≈ 5.06 µM)	> 64	8 (≈ 20.2 µM)	0.06 (≈ 0.152 µM)	6.4	32 (≈ 80.9 µM)	32 (≈ 80.9 µM)
COc1cccc(-c2ccn(CC[C@](C)(C(=O)NO)S(C)(=O)=O)c(=O)c2)c1F			0.5 (≈ 1.21 µM)			0.015 (≈ 0.0364 µM)	1.8		
C[C@@](CCn1cnc(-c2ccccc2)cc1=O)(C(=O)NO)S(C)(=O)=O	4 (≈ 10.9 µM)	16 (≈ 43.8 µM)	1 (≈ 2.74 µM)	64 (≈ 175 µM)	8 (≈ 21.9 µM)	0.03 (≈ 0.0821 µM)	8.5	16 (≈ 43.8 µM)	16 (≈ 43.8 µM)
C[C@@](CCn1ccc(CCc2ccccc2)cc1=O)(C(=O)NO)S(C)(=O)=O			2 (≈ 5.1 µM)			0.03 (≈ 0.0764 µM)	6		
CC(CCc1ccc(-c2ccccc2)cn1)(C(=O)NO)S(C)(=O)=O (racemic)			4 (≈ 11.5 µM)			0.125 (≈ 0.359 µM)	13		
Cc1c(-c2ccccc2)ccn(CC[C@](C)(C(=O)NO)S(C)(=O)=O)c1=O			0.5 (≈ 1.32 µM)			0.015 (≈ 0.0396 µM)	6.7		
C[C@H]1[C@H](NC(=O)/C(=N\OC(C)(C)C(=O)O)c2csc(N)n2)C(=O)N1S(=O)(=O)O [AZTREONAM]	64 (≈ 147 µM)	> 64		32 (≈ 73.5 µM)	> 64			> 64	32 (≈ 73.5 µM)
CC(CCc1ccc(-c2ccccc2)nc1O)(C(=O)NO)S(C)(=O)=O (racemic)			32 (≈ 87.8 µM)			1 (≈ 2.74 µM)	53		
C[C@@](CCn1ccc(-c2ccc(F)cc2)cc1=O)(C(=O)NO)S(C)(=O)=O			0.25 (≈ 0.654 µM)			0.008 (≈ 0.0209 µM)	2.9		
C[C@@](CCn1ccc(-c2ccccc2F)cc1=O)(C(=O)NO)S(C)(=O)=O			0.25 (≈ 0.654 µM)			0.015 (≈ 0.0392 µM)	2.2		
Cc1cccc(C)c1-c1ccn(CC[C@](C)(C(=O)NO)S(C)(=O)=O)c(=O)c1			64 (≈ 163 µM)			2 (≈ 5.1 µM)	> 87		
C[C@@](CCn1ccc(-c2ccc(Cl)c(F)c2F)cc1=O)(C(=O)NO)S(C)(=O)=O	0.25 (≈ 0.575 µM)	0.25 (≈ 0.575 µM)	0.125 (≈ 0.287 µM)	> 64	0.06 (≈ 0.138 µM)	0.008 (≈ 0.0184 µM)	0.52	0.5 (≈ 1.15 µM)	0.25 (≈ 0.575 µM)

Compound	MIC90 [1] [µg/mL]	MIC90 [2] [µg/mL]	MIC [3] [µg/mL]	MIC90 [4] [µg/mL]	MIC90 [5] [µg/mL]	MIC [6] [µg/mL]	IC50 [7] [nM]	MIC90 [8] [µg/mL]	MIC90 [9] [µg/mL]
C[C@@](CCn1ncc(-c2ccccc2)cc1=O)(C(=O)NO)S(C)(=O)=O			32 (≈ 87.6 µM)			1 (≈ 2.74 µM)	> 72		
C[C@@](CCn1ccc(-c2ccc(Cl)cc2F)cc1=O)(C(=O)NO)S(C)(=O)=O	1 (≈ 2.4 µM)	0.5 (≈ 1.2 µM)	0.125 (≈ 0.3 µM)	64 (≈ 154 µM)	0.125 (≈ 0.3 µM)	0.008 (≈ 0.0192 µM)	1	1 (≈ 2.4 µM)	0.5 (≈ 1.2 µM)
COc1cnc(-c2ccc(-c3ccn(CC[C@](C)(C(=O)NO)S(C)(=O)=O)c(=O)c3)cc2)nc1			0.25 (≈ 0.529 µM)			0.03 (≈ 0.0635 µM)	1.2		
C[C@@](CCn1cc(F)c(-c2ccccc2)cc1=O)(C(=O)NO)S(C)(=O)=O	4 (≈ 10.5 µM)	8 (≈ 20.9 µM)	0.5 (≈ 1.31 µM)	32 (≈ 83.7 µM)	4 (≈ 10.5 µM)	0.015 (≈ 0.0392 µM)	2.3	8 (≈ 20.9 µM)	8 (≈ 20.9 µM)
CC(CCc1ncc(-c2ccccc2)cn1)(C(=O)NO)S(C)(=O)=O (racemic)			> 64			4 (≈ 11.4 µM)	> 100		
COc1ncc(-c2ccc(-c3ccn(CC[C@](C)(C(=O)NO)S(C)(=O)=O)c(=O)c3)cc2)cn1			0.5 (≈ 1.06 µM)			0.03 (≈ 0.0635 µM)	2		
C[C@@](CCn1ccc(-c2ccccc2)nc1=O)(C(=O)NO)S(C)(=O)=O			16 (≈ 43.8 µM)			0.5 (≈ 1.37 µM)	57		
C[C@@](CCn1ccc(-c2ccc(-c3ccccn3)cc2)cc1=O)(C(=O)NO)S(C)(=O)=O			0.5 (≈ 1.13 µM)			0.015 (≈ 0.034 µM)	1.3		
COc1ccc(-c2ccn(CC[C@](C)(C(=O)NO)S(C)(=O)=O)c(=O)c2)cc1			0.125 (≈ 0.317 µM)			0.008 (≈ 0.0203 µM)			
C[C@@](CCn1ccc(C2=CCCCC2)cc1=O)(C(=O)NO)S(C)(=O)=O			0.5 (≈ 1.36 µM)			0.03 (≈ 0.0814 µM)	4.1		
Cc1ccn(CC[C@](C)(C(=O)NO)S(C)(=O)=O)c(=O)c1			64 (≈ 212 µM)			8 (≈ 26.5 µM)	> 100		
C[C@@](CCn1ccc(-c2cc(F)cc(F)c2)cc1=O)(C(=O)NO)S(C)(=O)=O			1 (≈ 2.5 µM)			0.03 (≈ 0.0749 µM)	3.9		
COc1cccc(-c2ccn(CC[C@](C)(C(=O)NO)S(C)(=O)=O)c(=O)c2)c1			1 (≈ 2.54 µM)			0.03 (≈ 0.0761 µM)	3.7		
C[C@@](CCn1ccc(-c2ccncc2)cc1=O)(C(=O)NO)S(C)(=O)=O			32 (≈ 87.6 µM)			0.5 (≈ 1.37 µM)	39		
COc1ccc(-c2ccn(CC[C@](C)(C(=O)NO)S(C)(=O)=O)c(=O)c2)cc1F			0.5 (≈ 1.21 µM)			0.03 (≈ 0.0727 µM)	2		
Cc1cc(C)cc(-c2ccn(CC[C@](C)(C(=O)NO)S(C)(=O)=O)c(=O)c2)c1			2 (≈ 5.1 µM)			0.125 (≈ 0.318 µM)	5.3		
Cc1cn(CC[C@](C)(C(=O)NO)S(C)(=O)=O)c(=O)cc1-c1ccccc1			8 (≈ 21.1 µM)			0.125 (≈ 0.33 µM)	30		
C[C@@](CCn1ccc(-c2ccccc2)c(F)c1=O)(C(=O)NO)S(C)(=O)=O			1 (≈ 2.61 µM)			0.015 (≈ 0.0392 µM)	4.9		
CC(C)(C)c1ccn(CC[C@](C)(C(=O)NO)S(C)(=O)=O)c(=O)c1			8 (≈ 23.2 µM)			0.25 (≈ 0.726 µM)	69		
CC(CCc1ccc(-c2ccccc2)nc1)(C(=O)NO)S(C)(=O)=O (racemic)			8 (≈ 23 µM)			0.25 (≈ 0.718 µM)	49		
C[C@@](CCn1ccc(-c2ccc(-c3nccs3)cc2)cc1=O)(C(=O)NO)S(C)(=O)=O			0.25 (≈ 0.559 µM)			0.015 (≈ 0.0335 µM)	1.1		
C[C@@](CCn1ccc(-c2ccccn2)cc1=O)(C(=O)NO)S(C)(=O)=O			4 (≈ 10.9 µM)			0.25 (≈ 0.684 µM)	60		
O=C(O)c1cn(C2CC2)c2cc(N3CCNCC3)c(F)cc2c1=O [CIPROFLOXACIN]	64 (≈ 193 µM)	32 (≈ 96.6 µM)		64 (≈ 193 µM)	> 64			64 (≈ 193 µM)	1 (≈ 3.02 µM)
C[C@@](CCn1ccc(-c2cc(F)ccc2F)cc1=O)(C(=O)NO)S(C)(=O)=O			1 (≈ 2.5 µM)			0.03 (≈ 0.0749 µM)	4.4		
